According to patent US11213666B2, “Method for administering a medicament suitable for treating a migraine or cluster headache” (SORRENTO THERAPEUTICS, INC., priority 2016, dated 2022):
Like-named read-outs stand apart in the source and are kept apart here.

Tests used:
[1] = cited from earlier work
[2] = Porcine pharmacokinetic study of sumatriptan delivered by the microneedle fluid delivery apparatus (FIG. 50); assay type: in vivo, Yorkshire pigs; conditions: 20 mg via fluid delivery apparatus (microneedles), pig, blood serum; compared with nasal, oral and Zecuity administration
Protocol: In reference to FIG. 50, shown is the time versus concentration profile of sumatriptan as administered according to the methods and devices disclosed herein. An ideal profile (identified as “Target PK Profile”) is calculated based on the therapeutic efficiency of the medicament.
Thirty five 80 kg castrated or female Yorkshire pigs were placed under anesthesia and a catheter was inserted into the right or left jugular vein. After the catheter was placed, the pigs were kept under anesthesia and placed on their backs. The ventral region was shaved and covered with a depilatory cream (Nair Sensitive®) for 8 minutes. The cream was removed and the area washed with alcohol. The fluid delivery apparatus was placed against the skin with an adhesive and the microneedles (100 total) were inserted at a post traveling velocity of 6 m/s. A 20 mg dose of sumatriptan from the fluid deliver apparatus was delivered while the pig was under anesthesia. 3 mL blood samples were withdrawn at each time point and spun down to recover the blood serum.

[3] = nasal administration, compared with the actual profile of the fluid delivery apparatus (FIG. 49 vs FIG. 50)
[4] = subcutaneous administration, compared with the other routes of administration

- AUC [2]: significantly improved
- Css [2]: significantly improved
- Tmax [2]: significantly improved
Compound: CNS(=O)(=O)Cc1ccc2[nH]cc(CCN(C)C)c2c1.O=C(O)CCC(=O)O [sumatriptan, 1-[3-[2-(dimethylamino)ethyl]-1H-indol-5-yl]-N-methylmethanesulfonamide butanedioic acid]
- AUC [1, 3]: significantly lower
- Css [1, 3]: significantly lower
- Tmax ([1]; oral administration, compared with the actual profile of the fluid delivery apparatus): much slower
- Css ([1]; subcutaneous administration, as time progresses): significantly lower
- Cmax [1, 4]: higher
- Tmax [1, 4]: much faster
